Among the data in the Deep4Chem optical property database are absorption maximum values, retold here.

The data set can be described thus: solvent given as SMILES.

“And” between values parts separate entries of the source, which are not always exact repeats. Identical values can stand only once.

In turn, `Cc1cscc1-c1cc2c3cc(-c4cscc4C)c4nc(C(F)(F)C(F)(F)C(F)(F)F)nc5c(-c6cscc6C)cc(c6cc(-c7cscc7C)c7nc(C(F)(F)C(F)(F)C(F)(F)F)nc1c7c26)c3c45` gave an absorption maximum (in C1CCOC1) of 493 nm.

For the compound `N#Cc1nc(-n2c3ccccc3c3ccccc32)cc(-n2c3ccccc3c3ccccc32)n1`, the absorption maximum (in Cc1ccccc1) turned out to be 371 nm.

On to `c1cc2c3c(cccc3c1)-c1c-2c2ccccc2c2ccccc12`, for which the absorption maximum (in CCCCCCC) turned out to be 397 nm.

In turn, `CCCCn1c(-c2ccc(-c3nnc(-c4ccccc4)o3)cc2)nc(-c2ccccc2)c1-c1ccccc1` came in with an absorption maximum (in ClCCl) of 339 nm.

Consider `Cc1ccccc1/C(C#N)=C/c1ccc(N(C)C)cc1`, for which the absorption maximum (in C1CCOC1) was 376 nm; the absorption maximum (in C1COCCO1) is listed as 376 nm; the absorption maximum (in CC#N) is 377 nm; the absorption maximum (in CCCCCC) is recorded as 364 nm; the absorption maximum (in CCCCCCC) was found to be 376 nm; the absorption maximum (in CCCCCO) is 376 nm. Besides, the absorption maximum by setting is: (in CCCCO) 376 nm; (in CCCO) 374 nm; (in CCO) 376 nm; (in CCOC(C)=O) 373 nm; (in CN(C)C=O) 382 nm; (in CO) 374 nm. For the same compound, the absorption maximum reads like this: (in CS(C)=O) 385 nm; (in Cc1ccccc1) 366 nm; (in ClC(Cl)Cl) 378 nm.

In turn, `c1ccc2c(c1)Cc1c-2sc2c1Cc1ccccc1-2` came in with an absorption maximum (in C1CCOC1) of 354 nm.

With `CC(C)[Si](C#Cc1c2ccccc2c(C#Cc2c3ccccc3c(C#Cc3c4ccccc4c(C#Cc4c5ccccc5c(C#Cc5c6ccccc6c(C#Cc6c7ccccc7c(C#C[Si](C(C)C)(C(C)C)C(C)C)c7ccccc67)c6ccccc56)c5ccccc45)c4ccccc34)c3ccccc23)c2ccccc12)(C(C)C)C(C)C`, the absorption maximum (in Cc1ccccc1) is recorded as 589 nm.

With `CC1=[N+]2C(=C(c3ccc(N4CCOCC4)cc3)c3ccc(C)n3[B-]2(F)F)C=C1`, the absorption maximum is, setting by setting: (in C1CCCCC1) 509 nm; (in C1CCOC1) 507 nm; (in CC#N) 504 nm and 505 nm; (in CC(=O)C(C)(C)C) 506 nm; (in CC(C)=O) 505 nm; (in CCCCCC) 508 nm. The absorption maximum is, setting by setting: (in CCOC(C)=O) 506 nm; (in CO) 505 nm; (in Cc1ccccc1) 511 nm; (in ClC(Cl)Cl) 511 nm.

`Cc1cccn2c1cc1c3ccccc3nc(-c3cccs3)c12` registered an absorption maximum (in CS(C)=O) of 398 nm.

On to `O=[N+]([O-])c1ccco1`, for which the absorption maximum (in CO) came out at 302 nm and the absorption maximum (in O) worked out at 313 nm.

For the compound `Cc1cc2ccccc2c2c1c1ccccc1n2C`, for the setting “in ClCCl”, the absorption maximum amounted to 300 nm.

In the case of `CCC1=C(C)C2=C(c3ccc(-c4c5ccccc5c(-c5ccccc5)c5ccccc45)cc3)c3c(C)c(CC)c(C)n3[B-](F)(F)[N+]2=C1C`, the absorption maximum reads like this: (in CC#N) 523 nm; (in CCCCCC) 526 nm; (in CCO) 525 nm; (in CN(C)C=O) 526 nm; (in Cc1ccccc1) 529 nm; (in ClCCl) 527 nm.

Where the note is “in C1CCOC1”, `N#Cc1c(N2CCCCC2)cc(-c2ccc3ccc4cccc5ccc2c3c45)c2c1Cc1ccccc1-2` had an absorption maximum of 344 nm.

For the compound `COc1cc(N(c2ccccc2)c2ccccc2)ccc1C=C(C#N)C#N`, the absorption maximum by setting is: (in C1COCCO1) 436 nm; (in CC#N) 440 nm; (in CC(C)=O) 440 nm; (in CCOC(C)=O) 439 nm; (in CN(C)C=O) 445 nm; (in CO) 442 nm. For the same compound, the absorption maximum is reported as 443 nm (in Cc1ccccc1), 449 nm (in ClC(Cl)Cl) and 446 nm (in ClCCl).

For `c1ccc(C(=C(c2ccccc2)c2ccc(-c3ccc(-c4nc5c(-c6ccc(-c7ccc(C(=C(c8ccccc8)c8ccccc8)c8ccccc8)cc7)cc6)sc(-c6ccc(-c7ccc(C(=C(c8ccccc8)c8ccccc8)c8ccccc8)cc7)cc6)c5nc4-c4ccc(-c5ccc(C(=C(c6ccccc6)c6ccccc6)c6ccccc6)cc5)cc4)cc3)cc2)c2ccccc2)cc1`, the absorption maximum reads like this: (in Cc1ccccc1) 530 nm; (in ClCCl) 520 nm.

Take `CC1=CC(C)=[N+]2C1=Cc1c3ccccc3c(C#Cc3cccs3)n1[B-]2(F)F`: the absorption maximum is listed as 621 nm (in CCCCCC); 625 nm (in CCCCCCCCO); 620 nm (in CCOC(C)=O); 626 nm (in CN(C)C=O); 618 nm (in ClCCl).

The compound `Nc1ccc2nc(-c3ccccc3)c(=O)oc2c1` displayed an absorption maximum (in c1ccccc1) of 402 nm.

Turning to `CCOC(=O)c1ccccc1-c1c2ccc(=[N+](CC)CC)cc-2oc2cc(N(CC)CC)ccc12`, the absorption maximum is reported as 555 nm (in CC#N), 541 nm (in CCO), 560 nm (in CN(C)C=O) and 552 nm (in O).

The compound `CC1(C)C(/C=C/C2=C(Cl)C(=C/C=C3/N(Cc4ccc([N+](=O)[O-])cc4)c4ccccc4C3(C)C)/CCC2)=[N+](Cc2ccc([N+](=O)[O-])cc2)c2ccccc21` returned an absorption maximum (in CO) of 785 nm.

`CCCCCCc1ccc(-n2c3c4cccc(OC)c4nc(-c4ccc(OC)cc4)c3c3c2c2c(-c4ccc(OC)cc4)nc4c(OC)cccc4c2n3-c2ccc(CCCCCC)cc2)cc1`: for the setting “in ClC(Cl)Cl”, the absorption maximum stood at 317 nm.

Regarding `CCCCn1c2ccc(/C=C(\C#N)c3ccc([N+](=O)[O-])cc3)cc2c2cc(Cn3c(-c4ccc5c(c4)c4ccccc4n5CCCC)nc4ccccc43)ccc21`, the absorption maximum by setting is: (in C1CCOC1) 410 nm; (in CC#N) 416 nm; (in CCO) 416 nm; (in CCOC(C)=O) 408 nm; (in CN(C)C=O) 423 nm; (in ClCCl) 417 nm. In addition, the absorption maximum is, setting by setting: (in O) 434 nm; (in c1ccccc1) 409 nm.

Turning to `CC1=[N+]2C(=C(c3c4ccccc4c(C)c4ccccc34)c3ccc(C)n3[B-]2(F)F)C=C1`, the absorption maximum is 514 nm (in CC#N); 515 nm (in CCCCCC); 515 nm (in CCO); 517 nm (in CN(C)C=O); 519 nm (in Cc1ccccc1); 517 nm (in ClCCl).

In the case of `CON(C)C(=O)c1ccc(/C=C/c2ccc(/C=C/c3ccc(C(=O)N(C)OC)cc3)cc2)cc1`, the absorption maximum (in c1ccccc1) was determined as 368 nm.

Take `F[B-]1(F)n2c(-c3ccccc3)cc(-c3ccccc3)c2C(c2ccccc2)=C2C(c3ccccc3)=CC(c3ccccc3)=[N+]21`: the absorption maximum (in C1CCOC1) worked out at 561 nm.

As for `CCOC(=O)/C(C)=C/C1=C(c2ccc(C)cc2)C2=Nc3c(-c4ccc(C)cc4)c(Br)c(-c4ccc(C)cc4)n3[B-](F)(F)[N+]2=C1c1ccc(C)cc1`, the absorption maximum (in ClC(Cl)Cl) is on record as 661 nm.

For `Cc1cccc2ccccc12`, for the setting “in C1CCCCC1”, the absorption maximum was 293.94 nm.

For the setting “in ClCCl”, `ClP1(Cl)=N[P@@](Cl)(Oc2ccc3ccc4cccc5ccc2c3c45)=N[P@@](Cl)(Oc2ccc3ccc4cccc5ccc2c3c45)=N1` showed an absorption maximum of 343 nm.

For the compound `CN(C)c1ccc2c(-c3cc(N)ccc3C(=O)[O-])c3ccc(=[N+](C)C)cc-3oc2c1`, the absorption maximum was determined as 542 nm (in CCO) and 544 nm (in O).
